The text below walks through data of patent publication US8952037B2, “Heteroaryloxycarbocyclyl compounds as PDE10 inhibitors” (Amgen Inc., priority 2010, dated 2015).

The IC50 is the concentration needed to halve the response being measured.

In one assay the target is PDE10. The assay is described as follows: MPDE10A7 enzyme inhibition, IMAP TR-FRET assay. The conditions noted are these: read-out: PDE10 IC50. In kind it is biochemical. The protocol: MPDE10A7 Enzyme Activity and Inhibition
Enzyme Activity. An IMAP TR-FRET assay was used to analyze the enzyme activity (Molecular Devices Corp., Sunnyvale Calif.). 5 μL, of serial diluted PDE10A (BPS Bioscience, San Diego, Calif.) or tissue homogenate was incubated with equal volumes of diluted fluorescein labeled cAMP or cGMP for 60 min in 384-well polystyrene assay plates (Corning, Corning, N.Y.) at room temperature. After incubation, the reaction was stopped by adding 60 μL, of diluted binding reagents and was incubated for 3 hours to overnight at room temperature. The plates were read on an Envision (Perkin Elmer, Waltham, Mass.) for time resolved fluorescence resonance energy transfer. The data were analyzed with GraphPad Prism (La Jolla, Calif.).
Enzyme Inhibition. To check the inhibition profile, 5 μL, of serial diluted compounds were incubated with 5 μL, of diluted PDE10 enzyme (BPS Bioscience, San Diego, Calif.) or tissue homogenate in a 384-well polystyrene assay plate (Corning, Corning, N.Y.) for 30 min at room temperature. After incubation, 10 μL, of diluted fluorescein labeled cAMP or cGMP substrate were added and incubated for 60 min at room temperature. The reaction was stopped by adding 60 μL of diluted binding reagents and plates were read on an Envision (Perkin Elmer, Waltham, Mass.) for time resolved fluorescence resonance energy transfer. The data were analyzed with GraphPad Prism (La Jolla, Calif.).
In general terms: Time-resolved FRET reads energy transfer from a long-lived donor to a nearby acceptor.
As to `O=C(CO)N1CCC(c2nccnc2OC2CC(Nc3nc4ccccc4s3)C2)CC1` [Example 73, 1-(4-(3-((1S,3S)-3-(benzo[d]thiazol-2-ylamino)cyclobutoxy)pyrazin-2-yl)piperidin-1-yl)-2-hydroxyethanone], the IC50 stood at 4.81 nM. The same measure, in the same setting: the figure for `CN1CCC(c2nccnc2O[C@H]2C[C@@H](Nc3nc4ccccc4s3)C2)CC1` [Example 74, N-((1S,3S)-3-((3-(1-methylpiperidin-4-yl)pyrazin-2-yl)oxy)cyclobutyl)benzo[d]thiazol-2-amine] is 49.8 nM.

`F[C@H]1CCN(c2nccnc2OC2CC(Nc3nc4ccccc4s3)C2)C1` (stereo partly drawn) [Example 97, N-((1S,3S)-3-((3-(3-fluoropyrrolidin-1-yl)pyrazin-2-yl)oxy)cyclobutyl)benzo[d]thiazol-2-amine]: the IC50 was found to be 3.35 nM. In the case of `O=C1CCN(c2nccnc2OC2CC(Nc3nc4ccccc4s3)C2)CC1` [Example 98, 1-(3-((1S,3S)-3-(benzo[d]thiazol-2-ylamino)cyclobutoxy)pyrazin-2-yl)piperidin-4-one], the IC50 was determined as 21.1 nM. With `FC1(F)CCN(c2nccnc2OC2CC(Nc3nc4ccccc4s3)C2)CC1` [Example 99, N-((1S,3S)-3-((3-(4,4-difluoropiperidin-1-yl)pyrazin-2-yl)oxy)cyclobutyl)benzo[d]thiazol-2-amine], the IC50 was 17.7 nM. Same read-out and setting: next, `CC(O)C1CCN(c2nccnc2OC2CC(Nc3nc4ccccc4s3)C2)CC1` [Example 102, 1-(1-(3-((1S,3S)-3-(benzo[d]thiazol-2-ylamino)cyclobutoxy)pyrazin-2-yl)piperidin-4-yl)ethanol]: 10.8 nM; `Fc1ccc(C2CCOCC2)c(OC2CC(Nc3nc4ccccc4s3)C2)n1` [Example 105, N-((1S,3S)-3-((6-fluoro-3-(tetrahydro-2H-pyran-4-yl)pyridin-2-yl)oxy)cyclobutyl)benzo[d]thiazol-2-amine]: 0.758 nM; `N#Cc1ccc(N[C@H]2C[C@@H](Oc3ncccc3C3CCOCC3)C2)nc1` [Example 106, 6-(((1S,3S)-3-((3-(tetrahydro-2H-pyran-4-yl)pyridin-2-yl)oxy)cyclobutyl)amino)nicotinonitrile]: 590 nM. On the same count and under the same terms, the figure for `N#Cc1ccc(N[C@H]2C[C@H](Oc3ncccc3C3CCOCC3)C2)nc1` [Example 107, 6-(((1R,3R)-3-((3-(tetrahydro-2H-pyran-4-yl)pyridin-2-yl)oxy)cyclobutyl)amino)nicotinonitrile] is 865 nM.

On to `FC(F)(F)c1ccc(N[C@H]2C[C@H](Oc3ncccc3C3CCOCC3)C2)nc1` [Example 108, N-((1R,3R)-3-((3-(tetrahydro-2H-pyran-4-yl)pyridin-2-yl)oxy)cyclobutyl)-5-(trifluoromethyl)pyridin-2-amine], for which the 50% inhibitory concentration (IC50) worked out at 436 nM. In the case of `FC(F)(F)c1ccc(N[C@H]2C[C@@H](Oc3ncccc3C3CCOCC3)C2)nc1` [Example 109, N-((1S,3S)-3-((3-(tetrahydro-2H-pyran-4-yl)pyridin-2-yl)oxy)cyclobutyl)-5-(trifluoromethyl)pyridin-2-amine], the IC50 came out at 106 nM. The same measure, in the same setting: the figure for `Clc1ccc(N[C@H]2C[C@@H](Oc3ncccc3C3CCOCC3)C2)nc1` [Example 110, 5-chloro-N-((1S,3S)-3-((3-(tetrahydro-2H-pyran-4-yl)pyridin-2-yl)oxy)cyclobutyl)pyridin-2-amine] is 26.2 nM; for `Clc1ccc(N[C@H]2C[C@H](Oc3ncccc3C3CCOCC3)C2)nc1` [Example 111, 5-chloro-N-((1R,3R)-3-((3-(tetrahydro-2H-pyran-4-yl)pyridin-2-yl)oxy)cyclobutyl)pyridin-2-amine] it is 83.7 nM; for `CC(=O)N1CCC(c2cccnc2OC2CC(NS(=O)(=O)c3ccc(C)cc3)C2)CC1` [Example 114, N-((1S,3S)-3-((3-(1-acetylpiperidin-4-yl)pyridin-2-yl)oxy)cyclobutyl)-4-methylbenzenesulfonamide] it is 12400 nM.

As for `CC(=O)N1CCC(c2cccnc2OC2CC(NS(=O)(=O)c3ccc(C)cc3)C2)CC1` [Example 115, N-((1R,3R)-3-((3-(1-acetylpiperidin-4-yl)pyridin-2-yl)oxy)cyclobutyl)-4-methylbenzenesulfonamide], the IC50 amounted to 916 nM. Consider `FC(F)(F)c1ccc(NC2CC(Oc3ncncc3C3CCOCC3)C2)nc1` [Example 116, N-((1R,3R)-3-((5-(tetrahydro-2H-pyran-4-yl)pyrimidin-4-yl)oxy)cyclobutyl)-5-(trifluoromethyl)pyridin-2-amine], for which the half-inhibitory concentration (IC50) was 959 nM. Still for that read-out and setting: next, `FC(F)(F)c1ccc(NC2CC(Oc3ncncc3C3CCOCC3)C2)nc1` [Example 117, N-((1S,3S)-3-((5-(tetrahydro-2H-pyran-4-yl)pyrimidin-4-yl)oxy)cyclobutyl)-5-(trifluoromethyl)pyridin-2-amine]: 321 nM; “TRANS-BENZOTHIAZOL-2-YL-{3-[5-FLUORO-3-(TETRAHYDRO-PYRAN-4-YL)-PYRIDIN-2-YL]-CYCLOBUTYL}-AMINE [Example 5B]”: 0.1 nM.

The same assay, now with this note: separated enantiomers; absolute stereochemistry not determined, value can be for either enantiomer of the pair; read-out: IC50.
As to `OC[C@H]1CCCN(c2nccnc2OC2CC(Nc3nc4ccccc4s3)C2)C1` (stereo partly drawn) [Example 91, ((S)-1-(3-((1S,3R)-3-(benzo[d]thiazol-2-ylamino)cyclobutoxy)pyrazin-2-yl)piperidin-3-yl)methanol], the IC50 was determined as 26 nM. On the same count and under the same terms, the figure for `OC[C@@H]1CCCN(c2nccnc2OC2CC(Nc3nc4ccccc4s3)C2)C1` (stereo partly drawn) [Example 92, ((R)-1-(3-((1S,3S)-3-(benzo[d]thiazol-2-ylamino)cyclobutoxy)pyrazin-2-yl)piperidin-3-yl)methanol] is 2.81 nM; for `C[C@H]1CCN(c2nccnc2OC2CC(Nc3nc4ccccc4s3)C2)C1` (stereo partly drawn) [Example 93, N-((1S,3S)-3-((3-((R)-3-methylpyrrolidin-1-yl)pyrazin-2-yl)oxy)cyclobutyl)benzo[d]thiazol-2-amine] it is 3.24 nM; for `C[C@H]1CCN(c2nccnc2OC2CC(Nc3nc4ccccc4s3)C2)C1` (stereo partly drawn) [Example 94, N-((1R,3S)-3-((3-((S)-3-methylpyrrolidin-1-yl)pyrazin-2-yl)oxy)cyclobutyl)benzo[d]thiazol-2-amine] it is 8.02 nM.

Regarding `N#C[C@@H]1CCN(c2nccnc2OC2CC(Nc3nc4ccccc4s3)C2)C1` (stereo partly drawn) [Example 95, (R)-1-(3-((1S,3S)-3-(benzo[d]thiazol-2-ylamino)cyclobutoxy)pyrazin-2-yl)pyrrolidine-3-carbonitrile], the IC50 came out at 0.728 nM. Same read-out and setting: the figure for `N#C[C@H]1CCN(c2nccnc2OC2CC(Nc3nc4ccccc4s3)C2)C1` (stereo partly drawn) [Example 96, (S)-1-(3-((1S,3R)-3-(benzo[d]thiazol-2-ylamino)cyclobutoxy)pyrazin-2-yl)pyrrolidine-3-carbonitrile] is 5.27 nM.
